One assay relates to Human venous whole blood. The experiment in a line: Human whole blood IFN-γ assay.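 Note: blood from healthy donors exposed to compound for 1 h before stimulation with anti-CD3 and anti-CD28 at 1 µg/mL each, IFN-γ quantified in supernatant by AlphaLISA.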 The note with it: human whole blood; normalized to 3 μM reference compound with anti-CD3 plus anti-CD28 as 100% activation; read-out: INFg Whole Blood Normalized Agonist EC50. In kind it is cell-based.
The target of the next assay is T1, human DGKα (Homo sapiens, UniProt P23743).
T1 construct: TVMV protease cleavage site (C); Hexa-His (C); made in house; host or cells: Sf9 insect cells (baculovirus, Bac-to-Bac)
Kind of assay: DGKα LIPGLO assay (extruded liposome substrate), in vitro DGK inhibition. It counts as biochemical. As to conditions: read-out: DGKa LIPGLO IC50.

The target of the next assay is T2, human DGKζ (Homo sapiens, UniProt Q13574).
T2 construct: TVMV protease cleavage site (C); Hexa-His (C); made in house; host or cells: Sf9 insect cells (baculovirus, Bac-to-Bac)
The experiment in a line: DGKζ LIPGLO assay (extruded liposome substrate), in vitro DGK inhibition. It counts as biochemical. The note with it: read-out: DGKz LIPGLO IC50.

This is an account of results in patent US10669272B2, “Substituted naphthyridinone compounds useful as T cell activators” (BRISTOL-MYERS SQUIBB COMPANY, priority 2018, dated 2020).

Where a name gives a salt, the structure may show the parent alone. Read-outs that look alike come from different tables or passages of the source.

T2 sequence (Q13574 with tags, fused parts or gaps isoform Q13574-4): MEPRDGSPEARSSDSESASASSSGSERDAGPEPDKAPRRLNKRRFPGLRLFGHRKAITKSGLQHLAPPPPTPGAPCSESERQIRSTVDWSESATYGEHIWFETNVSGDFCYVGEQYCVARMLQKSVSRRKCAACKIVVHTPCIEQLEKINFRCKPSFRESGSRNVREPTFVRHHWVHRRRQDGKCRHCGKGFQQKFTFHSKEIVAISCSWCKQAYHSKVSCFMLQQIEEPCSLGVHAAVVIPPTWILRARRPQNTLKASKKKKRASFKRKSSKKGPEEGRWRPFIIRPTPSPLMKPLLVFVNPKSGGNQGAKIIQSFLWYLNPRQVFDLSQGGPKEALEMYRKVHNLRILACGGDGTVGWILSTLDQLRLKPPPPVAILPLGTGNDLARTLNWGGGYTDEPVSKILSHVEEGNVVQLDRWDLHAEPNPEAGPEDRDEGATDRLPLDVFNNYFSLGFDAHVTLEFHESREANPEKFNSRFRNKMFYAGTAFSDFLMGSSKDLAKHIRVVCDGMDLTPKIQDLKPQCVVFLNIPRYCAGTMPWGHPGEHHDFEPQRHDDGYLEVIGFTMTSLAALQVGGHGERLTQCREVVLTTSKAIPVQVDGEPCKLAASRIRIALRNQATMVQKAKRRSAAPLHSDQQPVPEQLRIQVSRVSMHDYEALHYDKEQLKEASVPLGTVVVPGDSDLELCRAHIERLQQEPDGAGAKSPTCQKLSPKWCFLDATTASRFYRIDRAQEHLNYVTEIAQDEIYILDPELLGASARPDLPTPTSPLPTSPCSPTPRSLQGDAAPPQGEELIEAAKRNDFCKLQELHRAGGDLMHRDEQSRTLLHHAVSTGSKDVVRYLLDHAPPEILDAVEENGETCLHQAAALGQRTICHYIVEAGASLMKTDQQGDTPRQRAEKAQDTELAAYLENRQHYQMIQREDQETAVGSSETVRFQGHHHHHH
T1 sequence (P23743 with tags, fused parts or gaps): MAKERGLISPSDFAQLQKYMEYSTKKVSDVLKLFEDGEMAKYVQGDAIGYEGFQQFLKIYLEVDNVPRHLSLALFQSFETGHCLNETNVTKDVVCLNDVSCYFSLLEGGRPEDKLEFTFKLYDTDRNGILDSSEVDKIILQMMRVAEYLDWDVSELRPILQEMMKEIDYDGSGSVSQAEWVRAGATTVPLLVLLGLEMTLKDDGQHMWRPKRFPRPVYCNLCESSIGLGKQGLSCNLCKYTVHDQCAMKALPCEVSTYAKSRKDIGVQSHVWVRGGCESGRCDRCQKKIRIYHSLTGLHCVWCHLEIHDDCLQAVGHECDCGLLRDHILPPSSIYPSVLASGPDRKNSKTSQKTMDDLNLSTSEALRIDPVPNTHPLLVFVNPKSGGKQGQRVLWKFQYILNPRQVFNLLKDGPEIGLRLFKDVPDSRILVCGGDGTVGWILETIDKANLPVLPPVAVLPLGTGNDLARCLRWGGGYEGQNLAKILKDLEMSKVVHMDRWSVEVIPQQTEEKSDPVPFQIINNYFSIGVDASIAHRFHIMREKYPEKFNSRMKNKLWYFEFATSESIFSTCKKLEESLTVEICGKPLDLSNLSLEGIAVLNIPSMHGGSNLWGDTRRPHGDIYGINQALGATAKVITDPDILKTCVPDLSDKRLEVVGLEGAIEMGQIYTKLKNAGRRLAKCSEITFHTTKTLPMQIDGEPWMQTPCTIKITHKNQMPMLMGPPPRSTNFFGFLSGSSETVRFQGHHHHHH
Protocol for Human venous whole blood: Human Whole Blood IFN-γ Assay
Human venous whole blood (22.5 μL per well), obtained from healthy donors, was pre-treated with compounds for one hour at 37° C. in a humidified 95% air/5% CO2 incubator. The blood was stimulated with 2.5 μL anti-human CD3 and anti-CD28 mAb at a final concentration of 1 μg/mL each for 24 hours at 37° C. IFN-γ in the supernatants was measured using AlphLISA kit (Cat # AL217).

Turning to `C[C@@H]1CN(c2cc(=O)n(C)c3ccc(C#N)nc23)[C@@H](C)CN1C(c1ccccc1)c1ccc(F)cc1` (single isomer, unassigned) [Example 184], in the assay on Human venous whole blood, the EC50 was 0.57 µM. As for `C[C@@H]1CN(c2c(C#N)c(=O)n(C)c3ccc(C#N)nc23)CCN1C(c1ccc(F)cc1)c1ccncn1` (single isomer, unassigned) [Example 312], the IC50 came to 0.71 µM at human DGKα (liposome (LIPGLO) assay) and 3.4 µM on human DGKζ (liposome (LIPGLO) assay).

`Cc1ccc(C(c2ccc(Cl)cc2)N2C[C@H](C)N(c3c(C#N)c(=O)n(C)c4ccc(C#N)nc34)C[C@H]2C)cc1` (stereo partly drawn) [Example 825]: the IC50 at human DGKα (DGKα liposome (LIPGLO) assay) is 23 µM; on human DGKζ (DGKζ liposome (LIPGLO) assay), 3.2 µM. For `C[C@@H]1CN(c2cc(=O)n(C)c3ccc(C#N)nc23)[C@@H](C)CN1Cc1nnc(C(F)(F)F)o1` [Example 1436], the IC50 at human DGKα (liposome (LIPGLO) assay) is 11 µM; at human DGKζ (liposome (LIPGLO) assay), 5.6 µM. For `COc1ccc(C(C)N2C[C@H](C)N(c3cc(=O)n(C)c4ccc(C#N)nc34)C[C@H]2C)cc1OCCN1CCOCC1` (stereo partly drawn) [Example 1304], in that order: 110 µM and 17 µM. For `C[C@@H]1CN(c2c(C#N)c(=O)n(C)c3ccc(C#N)nc23)CCN1C(c1ccc(Cl)cc1)c1ccncn1` (single isomer, unassigned) [Example 320], in that order: 9.3 µM and 28 µM. Taken in the same sequence, the figures for `CC(c1ccc(OC(F)F)cn1)N1C[C@H](C)N(c2cc(=O)n(C)c3ccc(C#N)nc23)C[C@H]1C` (stereo partly drawn) [Example 653] were 0.094 µM and 1.1 µM. In the case of `CSCC(c1ccc(F)cc1)N1C[C@H](C)N(c2cc(=O)n(C)c3ccc(C#N)nc23)C[C@H]1C` (single isomer, unassigned) [Example 1319], the values for the IC50 at human DGKα (liposome (LIPGLO) assay) and on human DGKζ (liposome (LIPGLO) assay) were 0.099 µM and 0.61 µM, respectively. Taken in the same sequence, the figures for `Cc1cc(OC(F)(F)F)ccc1CN1C[C@H](C)N(c2cc(=O)n(C)c3ccc(C#N)nc23)C[C@H]1C` [Example 608] were 1.6 µM and 9.2 µM. For `C[C@H]1CN(C(c2ccc(F)cc2)c2ccc(F)cc2)[C@H](CO)CN1c1cc(=O)n(C)c2ccc(C#N)nc12` [Example 1151], the IC50 on human DGKα (liposome (LIPGLO) assay) stood at 9.6 µM; on human DGKζ (liposome (LIPGLO) assay) it was 22 µM. For `Cn1c(=O)cc(N2CCN(Cc3ccc(F)cc3Cl)C(COC(F)F)C2)c2nc(C#N)ccc21` (single isomer, unassigned) [Example 1184, 8-(4-(2-chloro-4-fluorobenzyl)-3-((difluoromethoxy)methyl)piperazin-1-yl)-5-methyl-6-oxo-5,6-dihydro-1,5-naphthyridine-2-carbonitrile], in that order: 110 µM and 11 µM.

In the case of `C[C@@H]1CN(c2c(C#N)c(=O)n(C)c3ccc(C#N)nc23)CCN1C(c1ccc(Cl)cc1)c1ccc(C#N)cc1` (single isomer, unassigned) [Example 873], the values for the IC50 on human DGKα (DGKα liposome (LIPGLO) assay) and at human DGKζ (DGKζ liposome (LIPGLO) assay) were 2.6 µM and 7.2 µM, respectively. As for `C[C@@H]1CN(c2cc(=O)n(C)c3ccc(C#N)nc23)[C@@H](C)CN1Cc1cccc2c1OCCN2C(=O)OC(C)(C)C` [Example 630], the IC50 on human DGKα (liposome (LIPGLO) assay) amounted to 0.39 µM; on human DGKζ (liposome (LIPGLO) assay) it was 13 µM.

In the case of `C[C@@H]1CN(c2cc(=O)n(C)c3ccc(C#N)nc23)[C@@H](C)CN1C(c1ccc(C#N)cc1)c1ccc(F)cn1` (stereo partly drawn) [Example 464, 8-((2S,5R)-4-((4-cyanophenyl)(5-fluoropyridin-2-yl)methyl)-2,5-dimethylpiperazin-1-yl)-5-methyl-6-oxo-5,6-dihydro-1,5-naphthyridine-2-carbonitrile], the IC50 on human DGKα (liposome (LIPGLO) assay) is 0.28 µM; at human DGKζ (liposome (LIPGLO) assay), 1.7 µM. Taken in the same sequence, the figures for `Cc1ncc(C(c2ccc(Cl)cc2)N2CCN(c3c(C#N)c(=O)n(C)c4ccc(C#N)nc34)C[C@H]2C)cn1` (stereo partly drawn) [Example 314, 8-((3R)-4-((4-chlorophenyl)(2-methylpyrimidin-5-yl)methyl)-3-methylpiperazin-1-yl)-5-methyl-6-oxo-5,6-dihydro-1,5-naphthyridine-2,7-dicarbonitrile] were 8.5 µM and 31 µM. For `COC[C@@H]1CN(c2cc(=O)n(C)c3ccc(C#N)nc23)[C@@H](C)CN1C(C)c1ccc(OC(F)(F)F)cc1` (single isomer, unassigned) [Example 1162], the IC50 on human DGKα (liposome (LIPGLO) assay) was determined as 0.48 µM; on human DGKζ (liposome (LIPGLO) assay), 0.55 µM. Turning to `CC(C)Oc1cc(F)ccc1CN1C[C@H](C)N(c2cc(=O)n(C)c3ccc(C#N)nc23)C[C@H]1C` [Example 598], the IC50 was determined as 0.34 µM at human DGKα (liposome (LIPGLO) assay) and 1.8 µM at human DGKζ (liposome (LIPGLO) assay). Turning to `C[C@@H]1CN(c2c(C#N)c(=O)n(C)c3ccc(C#N)nc23)[C@@H](C)CN1C(c1ccc(F)cc1)c1cn(C)cn1` (single isomer, unassigned) [Example 852], the values for the IC50 on human DGKα (DGKα liposome (LIPGLO) assay) and at human DGKζ (DGKζ liposome (LIPGLO) assay) were 1.3 µM and 5.7 µM, respectively. As for `CC(c1cccc(OC(F)F)c1)N1C[C@H](C)N(c2cc(=O)n(C)c3ccc(C#N)nc23)C[C@H]1C` (single isomer, unassigned) [Example 1272], the figures for the IC50 on human DGKα (liposome (LIPGLO) assay) and on human DGKζ (liposome (LIPGLO) assay) were 5 µM and 0.66 µM, respectively.

In the case of `CC(C)C(C)(F)C1CN(c2cc(=O)n(C)c3ccc(C#N)nc23)CCN1C(c1ccc(F)cc1)c1ccc(F)cc1` (single isomer, unassigned) [Example 91, 8-(4-(bis(4-fluorophenyl)methyl)-3-(2-fluoro-3-methylbutan-2-yl)piperazin-1-yl)-5-methyl-6-oxo-5,6-dihydro-1,5-naphthyridine-2-carbonitrile, TFA], the IC50 on human DGKα (liposome (LIPGLO) assay) and on human DGKζ (liposome (LIPGLO) assay) was 240 µM throughout. For `C[C@@H]1CN(c2c(C#N)c(=O)n(C)c3ccc(C#N)nc23)CCN1C(c1ccc(F)cc1)c1cccc2c1OC(C)(C)C2` (single isomer, unassigned) [Example 934], the IC50 came out at 8.6 µM on human DGKα (DGKα liposome (LIPGLO) assay) and 5.4 µM at human DGKζ (DGKζ liposome (LIPGLO) assay). `CC(C)Oc1cccc(CN2C[C@H](C)N(c3cc(=O)n(C)c4ccc(C#N)nc34)C[C@H]2C)c1` [Example 594]: the IC50 is 7 µM on human DGKα (liposome (LIPGLO) assay) and 1.4 µM on human DGKζ (liposome (LIPGLO) assay). For `C[C@@H]1CN(c2cc(=O)n(C)c3ccc(C#N)nc23)[C@@H](C)CN1C(c1cccc(F)c1)c1ccc(C(F)(F)F)cn1` (stereo partly drawn) [Example 370, 8-((2S,5R)-4-((3-fluorophenyl)(5-(trifluoromethyl)pyridin-2-yl)methyl)-2,5-dimethylpiperazin-1-yl)-5-methyl-6-oxo-5,6-dihydro-1,5-naphthyridine-2-carbonitrile], in that order: 1.1 µM and 0.76 µM.

As for `CCC(c1ccc(F)c(F)c1)N1C[C@H](C)N(c2cc(=O)n(C)c3ccc(C#N)nc23)C[C@H]1C` (single isomer, unassigned) [Example 411], the IC50 on human DGKα (liposome (LIPGLO) assay) worked out at 22 µM; at human DGKζ (liposome (LIPGLO) assay), 19 µM. Taken in the same sequence, the figures for `C[C@@H]1CN(c2cc(=O)n(C)c3ccc(C#N)nc23)[C@@H](C)CN1Cc1cccc(N(C)C)c1` [Example 573] were 4.3 µM and 0.64 µM. Taken in the same sequence, the figures for `CC(=O)N1CCOc2c(CN3C[C@H](C)N(c4cc(=O)n(C)c5ccc(C#N)nc45)C[C@H]3C)cccc21` [Example 631] were 1.4 µM and 4.3 µM. Take `Cc1ccc(C(c2ccc(Cl)cn2)N2CCN(c3c(C#N)c(=O)n(C)c4ccc(C#N)nc34)C[C@H]2C)cc1` (single isomer, unassigned) [Example 936]: the IC50 at human DGKα (DGKα liposome (LIPGLO) assay) turned out to be 1 µM; at human DGKζ (DGKζ liposome (LIPGLO) assay) it was 3.3 µM. As for `CC(C)[C@H]1CN(c2c(C#N)c(=O)n(C)c3ccc(Br)nc23)CCN1C(c1ccc(F)cc1)c1ccc(F)cc1` [Example 11, (S)-4-(4-(bis(4-fluorophenyl)methyl)-3-isopropylpiperazin-1-yl)-6-bromo-1-methyl-2-oxo-1,2-dihydro-1,5-naphthyridine-3-carbonitrile], the IC50 was 3.6 µM on human DGKα (liposome (LIPGLO) assay) and 240 µM at human DGKζ (liposome (LIPGLO) assay).

As for `Cc1ncc(C(c2ccc(Cl)cc2)N2CCN(c3c(C#N)c(=O)n(C)c4ccc(C#N)nc34)C[C@H]2C)cn1` (single isomer, unassigned) [Example 413], the IC50 at human DGKα (liposome (LIPGLO) assay) was 12 µM; on human DGKζ (liposome (LIPGLO) assay), 15 µM. For `COCC(c1ccc(F)cc1)N1C[C@H](C)N(c2cc(=O)n(C)c3ccc(C#N)nc23)C[C@H]1C` (single isomer, unassigned) [Example 560], in that order: 0.58 µM and 2.9 µM.

Turning to `Cn1c(=O)cc(N2CCN(C(c3ccc(F)cc3)c3ccc(F)cc3)CC2CF)c2nc(C#N)ccc21` (racemic) [Example 149, 8-(4-(bis(4-fluorophenyl)methyl)-2-(fluoromethyl)piperazin-1-yl)-5-methyl-6-oxo-5,6-dihydro-1,5-naphthyridine-2-carbonitrile], the 50% inhibitory concentration (IC50) on human DGKα (liposome (LIPGLO) assay) worked out at 35 µM; on human DGKζ (liposome (LIPGLO) assay) it was 21 µM. Taken in the same sequence, the figures for `C[C@@H]1CN(c2cc(=O)n(C)c3ccc(C#N)nc23)[C@@H](C)CN1Cc1ccc(OC(F)(F)F)cc1F` (single isomer, unassigned) [Example 624] were 0.66 µM and 24 µM. Taken in the same sequence, the figures for `CC[C@H]1CN(C(c2ccc(C)cc2)c2ccc(Cl)cc2)[C@H](C)CN1c1cc(=O)n(C)c2ccc(C#N)nc12` (single isomer, unassigned) [Example 1121] were 1.8 µM and 2.7 µM. As to `C[C@@H]1CN(c2c(C#N)c(=O)n(C)c3ccc(C#N)nc23)CCN1C(c1ccc(Cl)cc1)c1ccc(Cl)cn1` (stereo partly drawn) [Example 931], the IC50 at human DGKα (DGKα liposome (LIPGLO) assay) stood at 0.8 µM; on human DGKζ (DGKζ liposome (LIPGLO) assay), 2.7 µM. For `C[C@@H]1CN(C(c2ccc(F)cc2)c2ccc(F)cc2)[C@@H](C)CN1c1c(C#N)c(=O)n(C)c2ccc(Br)nc12` [Example 5, 4-((2R,5S)-4-(bis(4-fluorophenyl)methyl)-2,5-dimethylpiperazin-1-yl)-6-bromo-1-methyl-2-oxo-1,2-dihydro-1,5-naphthyridine-3-carbonitrile], the IC50 at human DGKα (liposome (LIPGLO) assay) amounted to 23 µM; on human DGKζ (liposome (LIPGLO) assay) it was 42 µM.

The term EC50 denotes the concentration needed to bring the measured effect to its halfway point. A word on the IC50: it is the point on the concentration scale where inhibition reaches its midpoint.
